Experimental data: patent US9198957B2, “Treatment and prevention of bacterial vaginosis and Gardnerella vaginalis infections” (The Trustees of Columbia University in the City of New York, priority 2011, dated 2015)

How the values were obtained:
[1] = reference (77); cited from earlier work
Atopobium vaginae = conditions: reference (80); cited from earlier work
[2] = system: BV and G. vaginalis infections; conditions: cited from earlier work
strain ARG3 = test: MIC by E-test, strain ARG3; format: cell-based, Gardnerella vaginalis; conditions: Mueller-Hinton agar with 5% sheep's blood, CLSI, repeated twice
strain 49145 = test: MIC by E-test, strain 49145; format: cell-based, Gardnerella vaginalis; conditions: Mueller-Hinton agar with 5% sheep's blood, CLSI, repeated twice
[3] = system: group B Streptococcus biofilm; test: Inhibition of group B Streptococcus biofilm formation (A462); format: cell-based; conditions: DNase 100 μg/ml, t=0 hours; FIG. 17
Method: (§1) Biofilms of multiple Gardnerella strains [G. Vaginalis is the only species in the genus Gardnerella.] were grown, separately, in vitro in 96-well plates in BHI-supplemented media. Bovine pancreas DNase was added in varying concentrations to biofilm cultures at 0 hours (newly forming biofilms) and 24 hours (established biofilms.) The biofilms were washed, the supernatant was removed, and the biofilms were stained with safranin and solubilized in acetic acid. Biofilm absorbance at A462 nm was measured with a spectrophotometer, which method quantifies the amount of safranin stain taken up by the biofilm. DNase-treated and untreated biofilms were also grown in chamber slides and DAPI staining was performed for fluorescence microscopy.
(§2) 180 μL of bacteria and 20 μL of DNase at varying concentrations (1:10 dilutions of 1 mg/mL to final concentrations in the wells as labeled in the figures) or PBS as a control (total volume always 200 μL) were added together at t=0 hours and incubated for 24 hours. They were then washed, stained with safranin and solubilized with ascetic acid, with measurement of absorbance at 462 nm to quantify density of stained material.
The results depicted in FIG. 17 show the dose-response inhibition of group B Streptococcus biofilm formation by DNase that was administered at t=0 hours as assessed by measuring the absorbance of light at 462 nm (A462).

[4] = system: biofilms made by G. vaginalis; conditions: Patterson et al. 2007; cited from earlier work
[5] = system: established Gardnerella strain ARG3 biofilms; test: Breakdown of established (24 h) biofilm, strain ARG3; format: cell-based, Gardnerella vaginalis; conditions: DNase administered at t=24 hours; FIG. 4
Method: as §1
(§3) Biofilms were grown in the presence of varying concentrations of antibiotic and DNase administered at t=0 hours to test the effect of the agents on biofilm formation. To test the effects on the degradation of established biofilms, the agents were administered at t=24 hours.
(§4) All cultures and biofilms were grown in ‘biofilm media’ (BHI media+0.3% starch, 0.3% glucose, 0.5 mcg/mL amphotericin B) at 37° C. and 5% CO2. Liquid cultures of strains 49145 or ARG3 were grown overnight to a standardized OD600 of 0.6 and diluted 1:10 prior to aliquoting for biofilms. […]
(§5) For quantification as above, antibiotic concentrations were chosen based on the MIC (⅛-4× MIC).

Gardnerella biofilms = test: Fluorescence microscopy of DNase-treated biofilms; format: cell-based, Gardnerella vaginalis; conditions: DNase-treated vs untreated biofilms
[6] = system: Gardnerella strain ARG3 biofilm; test: Inhibition of newly forming biofilm (safranin stain), strain ARG3; format: cell-based, Gardnerella vaginalis; conditions: DNase 10 μg/ml and 100 μg/ml, time=0 hours; FIG. 2
Method: as §1
Biofilms were grown in the presence of varying concentrations of antibiotic and DNase administered at t=0 hours to test the effect of the agents on biofilm formation. […]
as §2, with “material. […]” for “material.”

G. Vaginalis ARG37 = test: Murine model of vaginal colonization; format: in vivo; conditions: co-inoculation with DNase, mice, strain ARG37; FIG. 16
Text: The same strategy works in the complex environment of the lower genital tract in murine models of vaginal colonization. Models for vaginal colonization of mice with G. Vaginalis and group B Streptococcus have been developed. […] FIG. 16. These models will important in prophylactic use in at-risk populations including, but not limited to, pregnant women, those individuals infected with sexually transmitted diseases including HIV, and those individuals with recurrent BV.

[7] = system: established Gardnerella strain 49145 biofilms; test: Breakdown of established (24 h) biofilm, strain 49145; format: cell-based, Gardnerella vaginalis; conditions: DNase administered at t=24 hours; FIG. 3
Method: as §1, §3, §4, §5

[8] = system: ATCC Gardnerella strain 49145 biofilms; test: Liberation of bacteria from biofilm into supernatant / bacterial killing (colony counts); format: cell-based, Gardnerella vaginalis
Method: Further experiments were conducted to assess whether there is an improved effect on biofilm formation and breakdown by the combined administration of DNase and antibiotics against Gardnerella. The y axis plots the % of biofilm absorbance A462 for each condition. […] The minimum inhibitory concentration (MIC) for the antibiotics was measured by E-testing the relevant strains. Colony counts were performed on both the supernatant and the biofilm components of the culture, and a one-way ANOVA with Bonferroni post-tests were performed using Prism (Graphpad) where DNase was administered at time=24 hours.

[9] = system: Gardnerella strain 49145 biofilm; test: Inhibition of newly forming biofilm (safranin stain, A462), strain 49145; format: cell-based, Gardnerella vaginalis; conditions: for reduction in biofilm formation (% biofilm density): FIG. 6
Method: as §1, §3
All cultures and biofilms were grown in ‘biofilm media’ (BHI media+0.3% starch, 0.3% glucose, 0.5 mcg/mL amphotericin B) at 37° C. and 5% CO2. Liquid cultures of strains 49145 or ARG3 were grown overnight to a standardized OD600 of 0.6 and diluted 1:10 prior to aliquoting for biofilms. Cultures were aliquoted into 96-well plates as follows:
as §2
160 μL of culture, 20 µL of antibiotic at varying concentrations (1:10 and 2-fold dilutions to final concentrations in wells as labeled in the figures), and 20 μL of DNase at varying concentrations (1:10 dilutions as above) with 20-40 μL of PBS used when necessary for controls (wells without antibiotic, DNase, or both) were added to wells at t=0 hours and incubated for 24 hours as above. Biofilms were quantified as above.

## CCS(=O)(=O)CCn1c([N+](=O)[O-])cnc1C [Tinidazole]
[1]
  half-life: 12 to 14 h

## CC1(C)S[C@@H]2[C@H](NC(=O)[C@H](N)c3ccccc3)C(=O)N2[C@H]1C(=O)O [ampicillin]
Atopobium vaginae
  Etest susceptibility concentration (range): <0.016 to 0.94 µg/mL

## CC[C@H]1OC(=O)[C@H](C)[C@@H](O[C@H]2C[C@@](C)(OC)[C@@H](O)[C@H](C)O2)[C@H](C)[C@@H](O[C@@H]2O[C@H](C)C[C@H](N(C)C)[C@H]2O)[C@](C)(O)C[C@@H](C)CN(C)[C@H](C)[C@@H](O)[C@]1(C)O [azithromycin]
Atopobium vaginae
  Etest susceptibility concentration (range): <0.016 to 0.32 µg/mL

## O=C(O)c1cn(C2CC2)c2cc(N3CCNCC3)c(F)cc2c1=O [ciprofloxacin]
Atopobium vaginae
  Etest susceptibility concentration (range): 0.023 to 0.25 µg/mL

## CC(=O)NC[C@H]1CN(c2ccc(N3CCOCC3)c(F)c2)C(=O)O1 [linezolid]
Atopobium vaginae
  Etest susceptibility concentration (range): 0.016 to 0.125 µg/mL

## Cc1ncc([N+](=O)[O-])n1CCO [metronidazole]
[1]
  half-life: 6 to 7 h
[2]; at four weeks, oral regimens for one week
  cure rates (by Amsel criteria): approximately 80%
[2]; multiple divided-dose oral regimens for one week
  early rates of clinical cure: > 90%
Strain ARG3
  Minimum Inhibitory Concentration (MIC): 4
Strain 49145
  Minimum Inhibitory Concentration (MIC): 4

## DNase
[3]
  extent of biofilm formation (A462): dramatic reduction
[4]
  reduction in biofilm formation or breakdown: no reduction in biofilm formation or breakdown
[5]
  breakdown of established biofilms: dose-dependent breakdown
Gardnerella biofilms
  biofilm matrix and overall density by fluorescence microscopy: decrease in the biofilm matrix and in overall density
[6]
  extent of biofilm formation (% biofilm density): dramatic reduction
G. Vaginalis ARG37
  establishment of vaginal colonization: inhibited the establishment of colonization
[7]
  breakdown of established biofilms: dose-dependent breakdown
[8]; DNase alone
  bacterial killing in biofilm cultures: does not kill the bacteria
[8]; DNase, FIGS. 13-15
  release of biofilm-embedded bacteria: released into the supernatant
[9]; DNase 10 μg/ml and 100 μg/ml, administered at time=0 hours, FIG. 1
  extent of biofilm formation (A462): dramatic reduction
[9]; DNase alone 1 μg/mL, t=0 hours
  reduction in biofilm formation (% biofilm density): 30%
[9]; DNase alone 1 μg/mL, t=0 hours, FIG. 8 (C)
  reduction in biofilm formation (A462): 30%
[9]; DNase alone 100 μg/mL, t=0 hours
  reduction in biofilm formation (% biofilm density): 75%

## penicillin
Atopobium vaginae
  Etest susceptibility concentration (range): 0.008 to 0.25 µg/mL
